Reference: ChEMBL document CHEMBL3769313, “Synthesis, structural characterization, docking, lipophilicity and cytotoxicity of 1-[(1R)-1-(6-fluoro-1,3-benzothiazol-2-yl)ethyl]-3-alkyl carbamates, novel acetylcholinesterase and butyrylcholinesterase pseudo-irreversible inhibitors” (Bioorg Med Chem, 2016)
The source made the active and inactive calls. No cut-off for these calls is given here.

Legend:
Cholinesterase = Cholinesterase (Equus caballus, UniProt P81908); test: Inhibition of equine serum BChE by spectrophotometric-based Ellman's method
Cholinesterase, sequence (P81908 whole entry): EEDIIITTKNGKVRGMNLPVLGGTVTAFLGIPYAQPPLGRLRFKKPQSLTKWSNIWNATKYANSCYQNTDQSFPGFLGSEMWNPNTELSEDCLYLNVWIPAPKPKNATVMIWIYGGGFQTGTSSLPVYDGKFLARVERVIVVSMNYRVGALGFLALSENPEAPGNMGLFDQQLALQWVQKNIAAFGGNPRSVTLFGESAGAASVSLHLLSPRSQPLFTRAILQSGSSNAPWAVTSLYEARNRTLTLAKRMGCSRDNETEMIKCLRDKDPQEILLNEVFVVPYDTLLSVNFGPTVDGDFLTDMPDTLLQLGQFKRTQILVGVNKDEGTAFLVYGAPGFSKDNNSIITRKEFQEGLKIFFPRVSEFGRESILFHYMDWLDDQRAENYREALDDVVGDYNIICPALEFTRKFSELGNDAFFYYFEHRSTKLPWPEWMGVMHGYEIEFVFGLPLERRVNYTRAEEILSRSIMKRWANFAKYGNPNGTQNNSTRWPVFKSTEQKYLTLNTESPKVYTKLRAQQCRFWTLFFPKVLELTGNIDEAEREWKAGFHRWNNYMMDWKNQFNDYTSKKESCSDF

[1] = Selectivity ratio of IC50 for electric eel AChE to IC50 for equine serum BChE
[2] = n-Octanol-water partition coefficient, log P of the compound after 15 mins by shake flask method; assay type: physicochemical
Acetylcholinesterase [3] = molecular target: Acetylcholinesterase (Electrophorus electricus, UniProt O42275); test: Inhibition of electric eel AChE by spectrophotometric-based Ellman's method
Acetylcholinesterase (Electrophorus electricus, UniProt O42275), sequence (O42275 whole entry): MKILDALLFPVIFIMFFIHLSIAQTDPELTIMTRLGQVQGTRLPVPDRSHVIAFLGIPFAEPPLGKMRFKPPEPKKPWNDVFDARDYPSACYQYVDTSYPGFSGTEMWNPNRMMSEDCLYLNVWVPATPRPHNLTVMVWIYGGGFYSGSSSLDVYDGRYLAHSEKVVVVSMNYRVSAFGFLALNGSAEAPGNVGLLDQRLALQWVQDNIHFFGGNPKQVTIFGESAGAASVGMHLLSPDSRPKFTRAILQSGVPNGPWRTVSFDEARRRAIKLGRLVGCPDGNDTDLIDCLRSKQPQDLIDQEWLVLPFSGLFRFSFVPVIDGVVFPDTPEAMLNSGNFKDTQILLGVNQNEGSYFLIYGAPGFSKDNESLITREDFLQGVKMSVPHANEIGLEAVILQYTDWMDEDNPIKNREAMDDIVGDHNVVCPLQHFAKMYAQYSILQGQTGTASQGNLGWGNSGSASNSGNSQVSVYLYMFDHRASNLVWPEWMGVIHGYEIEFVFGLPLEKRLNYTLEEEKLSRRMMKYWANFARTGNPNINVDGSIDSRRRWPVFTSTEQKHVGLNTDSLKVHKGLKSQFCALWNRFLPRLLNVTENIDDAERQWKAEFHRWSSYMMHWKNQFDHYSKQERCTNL

[4] = Cytotoxicity against human Jurkat cells assessed as cell viability at 1 uM after 48 hrs by XTT assay relative to control; assay type: cell-based; conditions: read-out: Activity
[5] = Cytotoxicity against human Jurkat cells assessed as cell viability at 10 uM after 48 hrs by XTT assay relative to control; assay type: cell-based; conditions: read-out: Activity
[6] = molecular target: Acetylcholinesterase (Electrophorus electricus) (UniProt O42275); test: Potency index, ratio of rivastigmine IC50 to compound IC50 for electric eel AChE
Acetylcholinesterase (Electrophorus electricus), sequence (O42275 24-633 limits assumed): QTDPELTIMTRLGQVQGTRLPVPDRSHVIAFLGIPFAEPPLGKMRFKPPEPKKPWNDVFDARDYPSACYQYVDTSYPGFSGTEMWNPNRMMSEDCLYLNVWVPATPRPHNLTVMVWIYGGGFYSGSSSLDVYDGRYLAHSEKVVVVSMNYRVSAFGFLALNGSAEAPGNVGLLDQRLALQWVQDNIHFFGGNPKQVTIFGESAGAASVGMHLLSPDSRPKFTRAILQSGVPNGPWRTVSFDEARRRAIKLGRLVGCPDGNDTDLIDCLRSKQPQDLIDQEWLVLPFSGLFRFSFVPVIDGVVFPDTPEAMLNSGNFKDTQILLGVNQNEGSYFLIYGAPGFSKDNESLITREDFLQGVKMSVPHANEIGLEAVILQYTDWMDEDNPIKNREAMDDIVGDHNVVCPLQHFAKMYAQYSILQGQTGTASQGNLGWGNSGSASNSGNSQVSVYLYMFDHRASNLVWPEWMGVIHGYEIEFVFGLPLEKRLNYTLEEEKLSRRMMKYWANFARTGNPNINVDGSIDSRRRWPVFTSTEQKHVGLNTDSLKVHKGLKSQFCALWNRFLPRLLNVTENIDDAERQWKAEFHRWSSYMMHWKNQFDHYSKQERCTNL

SK-BR-3 [7] = test: Cytotoxicity against human SK-BR-3 cells assessed as decrease in cell proliferation index at 1 to 100 uM after 91 hrs by real-time cell analysis; assay type: cell-based; conditions: sk-br-3, 91 h
[8] = Cytotoxicity against human Jurkat cells assessed as cell viability at 250 uM after 48 hrs by XTT assay relative to control; assay type: cell-based; conditions: read-out: Activity
[9] = Cytotoxicity against human Jurkat cells assessed as cell viability at 100 uM after 48 hrs by XTT assay relative to control; assay type: cell-based; conditions: read-out: Activity
[10] = Cytotoxicity against human Jurkat cells assessed as cell viability at 50 uM after 48 hrs by XTT assay relative to control; assay type: cell-based; conditions: read-out: Activity
SK-BR-3 [11] = test: Cytotoxicity against human SK-BR-3 cells assessed as decrease in cell proliferation index at 250 uM by real-time cell analysis; assay type: cell-based; conditions: sk-br-3, 250 µM, TDE = time-dependent effect
Acetylcholinesterase [12] = molecular target: Acetylcholinesterase (Torpedo californica, UniProt P04058); test: Pseudo-irreversible inhibition of Torpedo californica AChE using acetylthiocholine as substrate by cornish bowden plot analysis; set-up: species or system Tetronarce californica
Acetylcholinesterase (Torpedo californica, UniProt P04058), sequence (P04058 whole entry): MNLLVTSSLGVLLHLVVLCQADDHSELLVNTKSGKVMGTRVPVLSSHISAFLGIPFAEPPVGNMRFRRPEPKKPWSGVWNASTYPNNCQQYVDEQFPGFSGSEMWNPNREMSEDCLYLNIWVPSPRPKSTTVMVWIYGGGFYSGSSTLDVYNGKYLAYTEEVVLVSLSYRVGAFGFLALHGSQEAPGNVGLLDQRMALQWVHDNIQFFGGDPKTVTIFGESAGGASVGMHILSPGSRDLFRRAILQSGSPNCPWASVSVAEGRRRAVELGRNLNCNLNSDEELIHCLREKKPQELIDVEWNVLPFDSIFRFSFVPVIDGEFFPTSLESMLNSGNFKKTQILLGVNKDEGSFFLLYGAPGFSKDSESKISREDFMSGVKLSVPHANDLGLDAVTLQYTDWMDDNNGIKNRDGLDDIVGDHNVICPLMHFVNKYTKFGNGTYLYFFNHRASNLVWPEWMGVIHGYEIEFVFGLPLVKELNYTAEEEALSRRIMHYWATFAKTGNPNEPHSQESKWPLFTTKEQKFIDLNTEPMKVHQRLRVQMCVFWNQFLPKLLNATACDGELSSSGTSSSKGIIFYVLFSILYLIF

[13] = molecular target: Acetylcholinesterase (Electrophorus electricus) (UniProt O42275); test: Pseudo-irreversible inhibition of electric eel AChE at 4 to 8 uM by spectrophotometric-based Ellman's method
SK-BR-3 [14] = test: Cytotoxicity against human SK-BR-3 cells assessed as decrease in cell proliferation index at 250 uM after 91 hrs by real-time cell analysis; assay type: cell-based; conditions: sk-br-3, 91 h
[15] = molecular target: Acetylcholinesterase (Electrophorus electricus) (UniProt O42275); test: Pseudo-irreversible inhibition of electric eel AChE at 5 to 9 uM by spectrophotometric-based Ellman's method
[16] = molecular target: Acetylcholinesterase (Electrophorus electricus) (UniProt O42275); conditions: 6 to 10 uM
Description: Pseudo-irreversible inhibition of electric eel AChE at 6 to 10 uM by spectrophotometric-based Ellman's method

Row | Structure (SMILES) | IC50 (Cholinesterase) [µM] | Ratio IC50 [1] | logP at 0.25 h [2] | IC50 (Acetylcholinesterase [3]) [µM] | also measured
1 | COC(=O)N[C@H](C)c1nc2ccc(F)cc2s1 | 90.3 | 0.15 | 2.5 | 13.6 | –
2 | C[C@@H](NC(=O)OC(C)(C)C)c1nc2ccc(F)cc2s1 | 23.1 | 0.46 | 4.41 | 10.5 | –
3 | C[C@@H](NC(=O)OCCCCl)c1nc2ccc(F)cc2s1 | 38.8 | 2.07 | 1.92 | 80.5 | –
4 | CCCCOC(=O)N[C@H](C)c1nc2ccc(F)cc2s1 | 40.9 | 0.23 | 4.82 | 9.26 | viability at 48 h, 1 µM [4]: 90.3%; viability at 48 h, 10 µM [5]: 80.2%; Ratio IC50 [6]: < 10; Activity (SK-BR-3 [7]): Non-toxic; viability at 48 h, 250 µM [8]: 49.5%; viability at 48 h, 100 µM [9]: 66.8%; viability at 48 h, 50 µM [10]: 88.7%; Activity (SK-BR-3 [11]): tde
5 | CCN(C)C(=O)Oc1cccc([C@H](C)N(C)C)c1 [RIVASTIGMINE] | – | – | – | – | Ki (Acetylcholinesterase [12]): 0.033 M⁻¹ s⁻¹
6 | C[C@@H](NC(=O)OCC(Cl)(Cl)Cl)c1nc2ccc(F)cc2s1 | 8.31 | 11.1 | 2.34 | 92.2 | –
7 | C[C@@H](NC(=O)OCC(F)(F)F)c1nc2ccc(F)cc2s1 | 63.4 | 0.64 | 2.69 | 40.5 | –
8 | CCOC(=O)N[C@H](C)c1nc2ccc(F)cc2s1 | 20.1 | 0.3 | 4.2 | 6.06 | viability at 48 h, 1 µM [4]: 87.4%; viability at 48 h, 10 µM [5]: 87.6%; Ratio IC50 [6]: < 10; inhibition [13]: Active; viability at 48 h, 250 µM [8]: 77%; viability at 48 h, 100 µM [9]: 85.6%; viability at 48 h, 50 µM [10]: 87.9%
9 | C[C@@H](NC(=O)OCCCl)c1nc2ccc(F)cc2s1 | 41.2 | 0.31 | 3.09 | 12.7 | –
10 | C[C@@H](NC(=O)OCC(F)(F)C(F)F)c1nc2ccc(F)cc2s1 | 25 | 0.27 | 2.92 | 6.75 | viability at 48 h, 1 µM [4]: 93%; viability at 48 h, 10 µM [5]: 85.3%; Activity (SK-BR-3 [14]): Toxic; Ratio IC50 [6]: < 10; inhibition [15]: Active; Activity (SK-BR-3 [7]): Non-toxic; viability at 48 h, 250 µM [8]: 80.3%; viability at 48 h, 100 µM [9]: 82.9%; viability at 48 h, 50 µM [10]: 89.3%
11 | CC(C)COC(=O)N[C@H](C)c1nc2ccc(F)cc2s1 | 40.2 | 0.32 | 4.24 | 12.9 | –
12 | C[C@@H](NC(=O)OCC(F)(F)Cl)c1nc2ccc(F)cc2s1 | 25.6 | 0.32 | 2.82 | 8.14 | viability at 48 h, 1 µM [4]: 91.1%; viability at 48 h, 10 µM [5]: 86.6%; Ratio IC50 [6]: < 10; inhibition [16]: Active; viability at 48 h, 250 µM [8]: 74%; viability at 48 h, 100 µM [9]: 85.7%; viability at 48 h, 50 µM [10]: 89.6%
13 | C[C@@H](NC(=O)OCCBr)c1nc2ccc(F)cc2s1 | 38.4 | 0.3 | 3.17 | 11.4 | –
14 | COCCOC(=O)N[C@H](C)c1nc2ccc(F)cc2s1 | 66.3 | 0.85 | 3.35 | 56.2 | –
15 | CCCOC(=O)N[C@H](C)c1nc2ccc(F)cc2s1 | 34.6 | 0.38 | 4.56 | 13.1 | –
16 | CC(C)OC(=O)N[C@H](C)c1nc2ccc(F)cc2s1 | 32.7 | 0.51 | 5.33 | 16.5 | –
17 | C[C@@H](NC(=O)OCC(F)(F)C(F)(F)C(F)(F)F)c1nc2ccc(F)cc2s1 | 74.5 | 1.1 | 3.2 | 81.9 | –
